Experimental data published in patent US20230203523A1, “HPPD INHIBITOR HERBICIDE TOLERANT PLANT” (priority 2021, published 2023).

Key:
Assay type in all cases: in vivo, Sorghum bicolor
[1] = tested on: grain sorghum genotype BV94-4045 (susceptible wild type); assay: Field phytotoxicity trial, aerial biomass as % of untreated control, wild type sorghum; conditions: BV94-4045 wild type; for Biomass % Control: field; for phytotoxicity / biomass accumulation (in words): POE, 20 days after herbicide application, 4×
Description: (§1) To determine the spectrum of tolerance to different HPPD herbicide site of action (SOA) active ingredients (AI) in a sorghum HPPD tolerant inbred BV10-11924 (ADV-HT2) following methodology was used.
(§2) Two grain sorghum genotypes were evaluated under field conditions with herbicide pre-emergency (PRE) and post-emergency (POE) treatments of 6 active ingredients of HPPD SOA herbicide families for sorghum crop phytotoxicity trials.
(§3) The experiment design was a split-plot design with 2 replicates where: Herbicide treatment was defined as Main plot, and Genotype as split plot. Plot size were 10 square meters each, this is 4 row/plot, 5 meters length and 0.52 meters between rows.
(§4) Both genotypes (Table 1) were sown in the Advanta R&D Station in Venado Tuerto, Argentina using an experimental planter. Wild type BV94-4045 (line used for mutagenesis in example 1) is a maintainer elite inbred line Advanta's proprietary.
(§5) All herbicide treatments (Table 2) were applied same day of sowing date for herbicide PRE treatments, and 15 days after sowing for POE treatments using an experimental sprayer in optimal weather conditions. The herbicides rates were defined as: 1×, 2× and 4×. Along with the herbicides, there were applied specific surfactant when they were recommended by the supplier for each herbicide. In all cases, 1× rate was defined based on the recommended dose in herbicide label. […]
(§6) For Aerial Biomass (Biomass) measurements, all plants from two central rows each plot were harvested by cutting them at ground level and weighted before and after drying at 60° C. for 48 h in order to determine the shoot dry mass reduction of each treatment. All data were standardized using the Aerial Biomass average as the % of Control plots. For the calculation as the percentage of its respective untreated control was used the following function:
(§7) Biomass % Control=(Biomassgh/Biomassg Control)*100
(§8) where “Biomass % Control” is the Aerial Biomass expressed as percent of each genotype in the Control plot without any herbicide application (Table 3); “Biomassgh” is the Aerial Biomass is the mean for each genotype*herbicide treatment combination and “Biomassg Control” is the Aerial Biomass mean for each genotype in the treatment CONTROL (untreated).

[2] = tested on: grain sorghum genotype BV10-11924 (mutant ADV-HT2); assay: Field phytotoxicity trial, aerial biomass as % of untreated control, mutant ADV-HT2 sorghum; conditions: for Biomass % Control: field
Description: as §1, §2, §3, §4, §5, §6, §7, §8

[3] = tested on: M3 sorghum plants of furrow VT09-8800 (BV94-4045EMS1-256-2, ADV-HT2); assay: Herbicide spray selection of EMS-mutagenised M3 sorghum progeny; conditions: sprayed with 33.6 ml active ingredient/ha; six M3 plants of furrow VT09-8800
Description: In order to obtain herbicide-tolerant plants, endogamic sorghum (Sorghum bicolor) line BV94-4045 (Advanta proprietary elite line) seeds were treated with an aqueous solution of ethyl methanesulfonate (EMS). Treated seeds were planted and self-pollinated for advancing generation. Eight hundred nighty five M1 plants were selected, and two seeds of each plant were planted in a nursery, thereby obtaining a total of 1790 M2 plants. Pollen from both plants of each pair were collected, and the bulk was used for pollinating both plants of the pair. A bulk of M3 seeds from each pair was obtained from the 895 pollinated M2 pairs of plants. A total of 895 furrows were planted with the M3 progeny. Fifty plants from each M3 furrow were sprayed with 33.6 ml active ingredient /ha of topramezone. […] The genealogy of the resistant plants from the furrows was identified and they were designated BV94-4045EMS1-256-2 (hereinafter referred to as ADV-HT2). Herbicide tolerant M7 mutant plants and seeds selected from the original ADV-HT2 mutant, designated as: Material ID=VT10-11924-1-BK and Inbred Code=BV10-11924, were obtained and deposited with the NCIMB collection with Access No. NCIMB 43919 under the terms of the Budapest Treaty,
Thirty-two thousand pre-germinated sorghum seeds from endogamic line BV94-4045 were dipped into an aqueous solution of 0.05% v/v ethyl methanesulfonate (EMS) for 16 hours. […]

[4] = POE application (15 days after sowing), 1X = label recommended rate
[5] = POE, 20 days after herbicide application, rates 1×, 2×, and 4×
[6] = PRE application (day of sowing), 1X = label recommended rate
[7] = PRE, 1× rate, 20 days after the application

SMILES	Biomass % Control [1, 4] [%]	Biomass % Control ([1]; POE application, 2X label rate) [%]	Biomass % Control ([1]; POE application, 4X label rate) [%]	phytotoxicity / biomass accumulation (in words) ([1]; rates 1×, 2×)	Biomass % Control [2, 4] [%]	Biomass % Control ([2]; POE application, 2X label rate) [%]	Biomass % Control ([2]; POE application, 4X label rate) [%]	phytotoxicity / biomass accumulation (in words) [2, 5]	plant growth and symptoms after treatment with herbicide (in words) [3]	phytotoxicity / biomass accumulation (in words) ([1]; rates 2×)	Biomass % Control [1, 6] [%]	Biomass % Control ([1]; PRE application, 2X label rate) [%]	Biomass % Control ([1]; PRE application, 4X label rate) [%]	Biomass % Control [2, 6] [%]	Biomass % Control ([2]; PRE application, 2X label rate) [%]	Biomass % Control ([2]; PRE application, 4X label rate) [%]	phytotoxicity / biomass accumulation (in words) [2, 7]
Cc1c(C(=O)c2cnn(C)c2O)ccc(S(C)(=O)=O)c1C1=NOCC1 [TOP, TOPRAMEZONE]	77	51	39	significant reduction in the biomass accumulation	126	107	117	tolerant without phytotoxicity nor reduction in the biomass accumulation	normal growth and absence of symptoms								
CS(=O)(=O)c1ccc(C(=O)C2C(=O)CCCC2=O)c([N+](=O)[O-])c1 [MES, MESOTRIONE]	108	32	13		146	106	84	tolerant without phytotoxicity nor reduction in the biomass accumulation		significant reduction in the biomass accumulation							
COCCOCc1nc(C(F)(F)F)ccc1C(=O)C1=C(O)C2CCC(C2)C1=O (stereo not drawn) [BYC, BICYCLOPIRONA]											65	10	1	127	46	15	no significative reduction in biomass accumulation
CS(=O)(=O)c1cc(C(F)(F)F)ccc1C(=O)c1cnoc1C1CC1 [ISO, ISOXAFLUTOLE]											63	28	10	84	68	38	no significative reduction in biomass accumulation
CCn1ncc(C(=O)c2ccc(S(C)(=O)=O)c(OCCOC)c2C)c1OC(C)OC(=O)OC (stereo not drawn) [TOL, TOLPYRALATE]	76	60	64	significant reduction in the biomass accumulation	117	92	127	tolerant without phytotoxicity nor reduction in the biomass accumulation									
